Test results as given in US20160106102A1, “KNOWN AND NEW HETEROCYCLIC COMPOUNDS AS PEST CONTROL AGENTS” (BAYER CROPSCIENCE AKTIENGESELLSCHAFT, priority 2013, published 2016).
Read-outs that look alike come from different tables or passages of the source.

Legend:
[1] = log P determination by LC-MS in the acidic range; format: physicochemical; conditions: for log P (acid): LC-MS in the acidic range
Description: The LC-MS determination in the acidic range is effected at pH 2.7 using 0.1% aqueous formic acid and acetonitrile (contains 0.1% formic acid) as eluents, linear gradient from 10% acetonitrile to 95% acetonitrile. Alternatively, the determination is effected in the acidic range at pH 2.3 using 0.1% aqueous phosphoric acid and acetonitrile as eluents; linear gradient from 10% acetonitrile to 95% acetonitrile.

[2] = tested on: Myzus persicae; test: Myzus persicae - sachet test; format: in vivo; conditions: 100% = all animals killed
Procedure: Myzus persicae—Sachet Test Solvent: 2% by vol. of N-methylpyrrolidone • 2% by vol. of diacetone alcohol To produce an appropriate active ingredient formulation, the active ingredient is mixed with the specified amounts of solvent and the concentrate is diluted to the desired concentration with water. The active ingredient formulation is added to a specific nutrient medium in the desired concentration by pipetting. This plate is sealed and combined with a further plate populated with the green peach aphid (Myzus persicae). After the desired time, the kill in % is determined. 100% means that all the animals have been killed; 0% means that no animals have been killed.

[3] = application rate of 6 ppm in nutrient medium
[4] = application rate of 30 ppm in nutrient medium
[5] = pH 2.7, LC-MS in the acidic range, read-out: log P (acid)
[6] = pH 2.7, values given in the synthesis examples and NMR lists, read-out: HPLC-MS: log P
[7] = Myzus persicae, application rate of 30 ppm in nutrient medium, read-out: efficacy (kill in %)

Structure (SMILES) | log P (acid) [1] | efficacy (kill in %) [2, 3] [%] | efficacy (kill in %) [2, 4] [%] | chromatographic logP [1, 5] | chromatographic logP [1, 6] | pest or weed control at 6 ppm ([2]; Myzus persicae, application rate of 6 ppm in nutrient medium, read-out: efficacy (kill in %)) [%] | pest or weed control at 30 ppm [2, 7] [%]
O=C(Nc1ccn(Cc2ncc(C(F)(F)F)cc2Cl)n1)c1cccnc1 [Compound I-1-116] | 1.86 | 100 | 100 | – | – | – | –
CC(=O)n1nc(NC(=O)c2cccnc2)cc1C [Compound I-1-120] | 1.18 | 100 | 100 | – | – | – | –
Cc1cc(NC(=O)c2cccnc2)nn1C(=O)c1ccccc1Cl [Compound I-1-122, N-[1-(2-Chlorobenzoyl)-5-methyl-1H-pyrazol-3-yl]nicotinamide] | – | – | – | 2.27 | 2.27 | 100 | 100
Cc1c(Br)c(NC(=O)c2cccnc2)nn1Cc1ncccn1 [Compound I-1-125] | 0.98 | – | 100 | – | – | – | –
Cc1cc(C)nc(-n2nc(NC(=O)c3cncc(F)c3)cc2C)n1 [Compound I-1-132] | 2.04 | – | 100 | – | – | – | –
Cc1cc(NC(=O)c2cncc(F)c2)nn1CC(F)(F)F [Compound I-1-135] | 1.79 | – | 100 | – | – | – | –
Cc1cn(Cc2ncccn2)nc1NC(=O)c1cccnc1 [Compound I-1-136, N-[4-Methyl-1-(pyrimidin-2-ylmethyl)-1H-pyrazol-3-yl]nicotinamide] | – | – | – | 0.44 | 0.44 | – | 100
COC(=O)c1cc(NC(=O)c2cccnc2)nn1C [Compound I-1-138] | 1.05 | – | 100 | – | – | – | –
Cc1cc(C)nc(-n2nc(NC(=O)c3cccnc3)cc2C)n1 [Compound I-1-139] | 1.6 | 100 | 100 | – | – | – | –
Cc1cc(NC(=O)c2cccnc2)nn1CN1CCS/C1=N/C#N [Compound I-1-142] | 1.08 | 100 | 100 | – | – | – | –
Cc1cc(NC(=O)c2cccnc2)nn1Cn1c(=O)n(C)c(=O)n1C [Compound I-1-145] | 0.82 | – | 100 | – | – | – | –
Cc1cc(NC(=O)c2cccnc2)nn1Cn1nc(C)n(C2CC2)c1=O [Compound I-1-146] | 1.05 | 100 | 100 | – | – | – | –
Cc1cc(NC(=O)c2cccnc2)nn1CC1COc2ccccc2O1 (stereo not drawn) [Compound I-1-157] | 1.99 | – | 100 | – | – | – | –
Cc1cc(NC(=O)c2cccnc2)nn1Cc1ccc2c(c1)CCCC2 [Compound I-1-158] | 2.73 | – | 100 | – | – | – | –
Cc1cc(NC(=O)c2cccnc2)nn1Cc1cn2cc(F)ccc2n1 [Compound I-1-159] | 0.66 | 100 | 100 | – | – | – | –
Cc1cc(NC(=O)c2cccnc2)nn1Cc1cn2cc(Cl)ccc2n1 [Compound I-1-160] | 1.03 | 100 | 100 | – | – | – | –
Cc1cc(NC(=O)c2cccnc2)nn1C(=O)N1CCCC1 [Compound I-1-161] | 1.29 | 80 | 100 | – | – | – | –
Cc1cc(NC(=O)c2cccnc2)nn1S(=O)(=O)N1CCC(C)CC1 [Compound I-1-162] | 2.51 | 100 | 100 | – | – | – | –
CSCCCNC(=O)n1nc(NC(=O)c2cccnc2)cc1C [Compound I-1-165] | 1.7 | 100 | 100 | – | – | – | –
Cc1cc(NC(=O)c2cccnc2)nn1C(=O)NCCOc1ccccc1 [Compound I-1-168] | 2.18 | 100 | 100 | – | – | – | –
Cc1cc(NC(=O)c2cccnc2)nn1C(=O)NCCOc1c(F)cccc1F [Compound I-1-171] | 2.21 | 80 | 100 | – | – | – | –
Cc1cc(N(C)C(=O)c2cccnc2)nn1CC1CC1 [Compound I-1-177] | 1.27 | – | 100 | – | – | – | –
Cc1c(C#N)c(NC(=O)c2cccnc2)nn1Cc1ncccn1 [Compound I-1-194] | 0.63 | – | 100 | – | – | – | –
Cc1cc(NC(=O)c2cccnc2)nn1Cc1ncc(Cl)cn1 [Compound I-1-195] | 1.23 | 100 | 100 | – | – | – | –
O=C(Nc1cc(Cl)n(Cc2ncccn2)n1)c1cccnc1 [Compound I-1-197] | 1.04 | 100 | 100 | – | – | – | –
Cc1cn(CC#N)nc1NC(=O)c1cccnc1 [Compound I-1-199] | 0.37 | – | 100 | – | – | – | –

Structure (SMILES) | log P (acid) [1] | efficacy (kill in %) [2, 3] [%] | efficacy (kill in %) [2, 4] [%] | chromatographic logP [1, 5] | chromatographic logP [1, 6] | pest or weed control at 6 ppm ([2]; Myzus persicae, application rate of 6 ppm in nutrient medium, read-out: efficacy (kill in %)) [%] | pest or weed control at 30 ppm [2, 7] [%]
Cc1cc(NC(=O)c2cccnc2)nn1-c1ccc(Cl)cc1Cl [Compound I-1-207] | 2.36 | 100 | 100 | – | – | – | –
Cc1cc(C)cc(-n2nc(NC(=O)c3cccnc3)cc2C)c1 [Compound I-1-208] | 2.4 | – | 100 | – | – | – | –
Cc1cc(NC(=O)c2cccnc2)nn1-c1ccc(Cl)cc1 [Compound I-1-209] | 2.09 | 80 | 100 | – | – | – | –
Cc1cc(NC(=O)c2cccnc2)nn1-c1ccccc1Cl [Compound I-1-213] | 1.86 | – | 100 | – | – | – | –
Cc1cc(NC(=O)c2cccnc2)nn1-c1cccc(C#N)c1 [Compound I-1-217] | 1.59 | 100 | 100 | – | – | – | –
Cc1cc(NC(=O)c2cccnc2)nn1C(C)(C)C#N [Compound I-1-219] | 1.31 | 100 | 100 | – | – | – | –
Cc1cc(NC(=Nc2ccc(Cl)cc2Cl)c2cccnc2)nn1C [Compound I-1-232] | 1.77 | – | 100 | – | – | – | –
Cc1cc(NC(=O)c2cccnc2)nn1C[S+]([O-])c1ncccn1 (stereo not drawn) [Compound I-1-235] | 0.5 | 80 | 100 | – | – | – | –
Cc1cc(NC(=O)c2cccnc2)nn1CS(=O)(=O)c1ncccn1 [Compound I-1-236] | 0.74 | 100 | 100 | – | – | – | –
Cc1cc(NC(=O)c2cccnc2)nn1CC=C(Cl)Cl [Compound I-1-238] | 1.83 | 100 | 100 | – | – | – | –
CSCn1nc(NC(=O)c2cccnc2)cc1C [Compound I-1-241] | 1.17 | 100 | 100 | – | – | – | –
Cc1cc(NC(=O)c2cccnc2)nn1CC(=O)Cc1ccccc1Cl [Compound I-1-247] | 1.92 | 100 | 100 | – | – | – | –
Cc1cc(NC(=O)c2ccnnc2)nn1-c1ccccn1 [Compound I-1-249] | 1.83 | – | 100 | – | – | – | –
CNS(=O)(=O)n1nc(NC(=O)c2cccnc2)cc1C [Compound I-1-257] | 0.55 | – | 100 | – | – | – | –
Cc1cc(NC(=O)c2cccnc2)nn1C(=O)N(C)S(=O)(=O)c1ccccc1 [Compound I-1-263] | 2.13 | 100 | 100 | – | – | – | –
Cc1cc(N(CC(F)F)C(=O)c2cccnc2)nn1Cc1ncccn1 [Compound I-1-265] | 1.19 | 100 | 100 | – | – | – | –
O=C(Nc1nn(Cc2ncccn2)cc1F)c1cccnc1 [Compound I-1-267] | 0.42 | – | 100 | – | – | – | –
N#Cc1cc(NC(=O)c2cccnc2)nn1Cc1ncccn1 [Compound I-1-269] | 1.0 | 100 | 100 | – | – | – | –
CSc1c(C#N)c(NC(=O)c2cccnc2)nn1C [Compound I-1-270] | 0.96 | – | 80 | – | – | – | –
O=C(Nc1cc(Cl)n(-c2ccccc2)n1)c1cccnc1 [Compound I-1-274] | 2.1 | – | 100 | – | – | – | –
Cc1cc(NC(=O)c2cncc(Cl)c2)nn1Cc1ncccn1 [Compound I-1-276] | 1.4 | 100 | 100 | – | – | – | –
CCS(=O)(=O)n1nc(NC(=O)c2cccnc2)cc1C [Compound I-1-278] | 1.29 | – | 100 | – | – | – | –
Cc1cc(NC(=O)c2cccnc2)nn1S(=O)(=O)c1cccnc1 [Compound I-1-280] | 1.45 | 80 | 100 | – | – | – | –
Cc1noc(Cn2nc(NC(=O)c3cccnc3)cc2C)n1 [Compound I-1-284] | 0.92 | 100 | 100 | – | – | – | –
CCNC(=O)n1nc(NC(=O)c2cccnc2)cc1C [Compound I-1-288] | 1.24 | 100 | 100 | – | – | – | –
CCN(CC)C(=O)n1nc(NC(=O)c2cccnc2)cc1C [Compound I-1-290] | 2.31 | 100 | 100 | – | – | – | –
